pIC50: −log10 of the molar value.
Legend:
[1] = molecular target: RIPK1 (Homo sapiens (Human), UniProt Q13546); assay: RIPK1 Binding Assay; details: displacement of fluorescent probe, TR-FRET
Description: Compounds were tested for their ability to displace a fluorescent probe from recombinant human RIPK1.
Recombinant human RIPK1 (1-375) was prepared as described in Harris et al., ACS Med. Chem. Letters (2013) 4:1238-1243 (Supplementary Information), with the following exceptions: (i) instead of using the gene sequence from NM_003804.3, the gene was synthesized with codon optimization for BEV expression system, and (ii) the gene was cloned into the vector pFastBac1, not pDEST8.
A fluorescent probe containing an Oregon green fluorophore was synthesized from a compound known to bind to RIPK1.
The assay was performed in a buffer containing 50 mM N-2-Hydroxyethylpiperazine-N′-2-ethanesulfonic acid (HEPES) (pH 7.5), 10 mM MgCl2, 1 mM ethylene diamine tetraacetic acid (EDTA), and 0.01% BRIJ-35 (Polyoxyethylene (23) lauryl ether). Test compounds were solvated in dimethyl sulfoxide (DMSO) at final concentrations 4-fold serially diluted from 100 to 0.000095 uM in technical duplicates into an empty 384 well plate. Recombinant RIPK1 (final concentration of 2.5 nM) was added to the wells and incubated with test compound for 1 hour at room temperature. A solution containing the fluorescent probe (final concentration 5 nM) and an LanthaScreen Tb-anti-GST antibody (Thermofisher Scientific; final concentration of 5 nM) was then added to each well, with the Tb-anti-GST antibody binding to the GST portion of the recombinant RIPK1 and providing the corresponding FRET pair to the fluorescent probe. The plate was incubated for 1 hour at room temperature and read on an Envision plate reader using a time resolved FRET protocol. Data was normalized and analyzed using Studies from Dotmatics.

[2] = tested on: U937 cells; assay: U937 TNF/zVAD Cytotoxicity Cell Assay; format: cell-based; details: Homo sapiens, U-937; TNFα 10 ng/mL + Z-VAD FMK 20 μM, 16-20 hours; read-out: U937 TNF/zVAD Induced Cytotoxicity IC50
Description: Compounds were tested for their ability to prevent TNF induced necroptosis in U937 cells. Treatment with TNF and the caspase inhibitor zVAD-FMK results in the activation and phosphorylation of RIPK1 and subsequent phosphorylation of RIPK3 and MLKL (Mixed Lineage Kinase Domain Like Pseudokinase), leading to induction of necroptotic cell death that is measured as a reduction in cell viability. Similar U937 assay protocols have been previously described; see, e.g., Harris et al., ACS Med. Chem. Letters (2013) 4:1238-1243 and Supplementary Information.
Test compounds were solvated in dimethyl sulfoxide (DMSO) and 3-fold serially diluted from 10 uM to 0.0005 uM with technical duplicates into an empty 384 well plate. U937 cells were resuspended at a concentration of 500,000 cells/mL in fresh RPMI (Roswell Park Memorial Institute) 1640 growth medium containing 10% heat inactivated fetal bovine serum (FB1S) and seeded into a 384 well plate containing compounds and incubated for 1 hour at 37° C. Following incubation, the cells were challenged with TNFα (final concentration of 10 ng/mL) and Z-VAD FMK (N-Benzyloxycarbonyl-Val-Ala-Asp(O-Me) fluoromethyl ketone; final concentration of 20 μM) for 16-20 hours at 37° C. Following the incubation with TNFα/Z-VAD, cells were lysed with Cell Titer-Glo and incubated for 5-10 minutes. The plate was then read on an Envision plate reader. Data was normalized and analyzed with Studies from Dotmatics.

RIPK1, sequence (Q13546 1-375): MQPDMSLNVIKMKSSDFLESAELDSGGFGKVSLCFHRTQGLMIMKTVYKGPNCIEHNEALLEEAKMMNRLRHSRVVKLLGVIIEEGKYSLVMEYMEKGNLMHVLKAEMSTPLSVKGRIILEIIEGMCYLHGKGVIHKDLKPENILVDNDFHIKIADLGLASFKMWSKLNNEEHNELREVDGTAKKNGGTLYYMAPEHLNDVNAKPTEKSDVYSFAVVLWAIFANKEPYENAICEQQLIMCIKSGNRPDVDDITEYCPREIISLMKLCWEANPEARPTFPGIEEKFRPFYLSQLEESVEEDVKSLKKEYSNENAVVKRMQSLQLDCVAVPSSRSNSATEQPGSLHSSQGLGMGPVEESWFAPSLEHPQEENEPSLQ

| Structure (SMILES) | pIC50 [1] | pIC50 [2] |
| --- | --- | --- |
| CN(CC(O)Cc1ccccc1)C(=O)c1cnc(C(F)F)c(C#Cc2cnn(C)c2)c1 (stereo in doubt) [Example 9, (S)-6-(difluoromethyl)-N-(2-hydroxy-3-phenylpropyl)-N-methyl-5-((1-methyl-1H-pyrazol-4-yl)ethynyl)nicotinamide] | 7.74 | 7.54 |
| CN(C[C@@H](O)Cc1ccccc1)C(=O)c1cncc(C#Cc2cnn(C)n2)c1 [Example 3, (S)-N-(2-hydroxy-3-phenylpropyl)-N-methyl-5-((2-methyl-2H-1,2,3-triazol-4-yl)ethynyl)nicotinamide] | 7.44 | 6.71 |
| CN(C[C@@H](O)Cc1ccccc1)C(=O)c1cncc(C#Cc2cnn(C(F)(F)F)c2)c1 [Example 4, (S)-N-(2-hydroxy-3-phenylpropyl)-N-methyl-5-((1-(trifluoromethyl)-1H-pyrazol-4-yl)ethynyl)nicotinamide] | 7.52 | 6.70 |
| CN(C[C@@H](O)Cc1ccccc1)C(=O)c1cncc(C#Cc2cnn(C3CC3)c2)c1 [Example 5, (S)-5-((1-cyclopropyl-1H-pyrazol-4-yl)ethynyl)-N-(2-hydroxy-3-phenylpropyl)-N-methylnicotinamide] | 7.85 | 7.31 |
| CN(C[C@@H](O)Cc1ccccc1)C(=O)c1cncc(C#Cc2cnn(C3CCC3)c2)c1 [Example 6, (S)-5-((1-cyclobutyl-1H-pyrazol-4-yl)ethynyl)-N-(2-hydroxy-3-phenylpropyl)-N-methylnicotinamide] | 8.52 | 8.22 |
| CN(C[C@@H](O)[C@@H](F)c1ccccc1)C(=O)c1cncc(C#Cc2cnn(C)c2)c1 [Example 7, N-((2R,3S)-3-fluoro-2-hydroxy-3-phenylpropyl)-N-methyl-5-((1-methyl-1H-pyrazol-4-yl)ethynyl)nicotinamide] | 8.15 | 8.05 |
| CN(C[C@@H](O)Cc1ccccc1)C(=O)c1cncc(C#Cc2cnn3c2COCC3)c1 [Example 8, (S)-5-((6,7-Dihydro-4H-pyrazolo[5,1-c][1,4]oxazin-3-yl)ethynyl)-N-(2-hydroxy-3-phenylpropyl)-N-methylnicotinamide] | 8.22 | 7.89 |
| CN(C[C@@H](O)Cc1ccccc1)C(=O)c1cncc(C#Cc2cnn(C3COC3)n2)c1 [Example 10, (S)-N-(2-hydroxy-3-phenylpropyl)-N-methyl-5-((2-(oxetan-3-yl)-2H-1,2,3-triazol-4-yl)ethynyl)nicotinamide] | 7.37 | 6.42 |
| CN(C[C@@H](O)Cc1ccccc1)C(=O)c1cncc(C#Cc2cnn(C)c2C2CC2)c1 [Example 11, (S)-5-((5-cyclopropyl-1-methyl-1H-pyrazol-4-yl)ethynyl)-N-(2-hydroxy-3-phenylpropyl)-N-methylnicotinamide] | 8.70 | 8.30 |
| CN(C[C@@H](O)Cc1cccc(F)c1)C(=O)c1cncc(C#Cc2cnn(C)c2)c1 [Example 12, (S)-N-(3-(3-fluorophenyl)-2-hydroxypropyl)-N-methyl-5-((1-methyl-1H-pyrazol-4-yl)ethynyl)nicotinamide] | 7.89 | 7.70 |
| COc1ncc(C(=O)N(C)C[C@@H](O)Cc2ccccc2)cc1C#Cc1cnn(C)c1 [Example 13, (S)-N-(2-hydroxy-3-phenylpropyl)-6-methoxy-N-methyl-5-((1-methyl-1H-pyrazol-4-yl)ethynyl)nicotinamide] | 7.02 | 6.42 |
| Cc1ncc(C#Cc2cncc(C(=O)N(C)C[C@@H](O)Cc3ccccc3)c2)s1 [Example 15, (S)-N-(2-hydroxy-3-phenylpropyl)-N-methyl-5-((2-methylthiazol-5-yl)ethynyl) nicotinamide] | 4.60 | – |
| Cc1ncc(C#Cc2cncc(C(=O)N(C)C[C@@H](O)Cc3ccccc3)c2)o1 [Example 17, (S)-N-(2-hydroxy-3-phenylpropyl)-N-methyl-5-((2-methyloxazol-5-yl)ethynyl)nicotinamide] | 7.49 | 6.84 |
| Cc1c(C#Cc2cncc(C(=O)N(C)C[C@@H](O)Cc3ccccc3)c2)cnn1C(F)F [Example 26, (S)-5-((1-(difluoromethyl)-5-methyl-1H-pyrazol-4-yl)ethynyl)-N-(2-hydroxy-3-phenylpropyl)-N-methylnicotinamide] | 8.74 | 8.52 |
